The text below walks through data of patent US20240287575A1, “Role of Human Pegivirus (HPGV) in Parkinson's Disease: Implications for Diagnosis and Treatment” (Northwestern University, priority 2023, published 2024).

The experiment deals with normal human astrocytes (NHA). Nature of the experiment: Gene expression in NHA exposed to inflammatory cytokines (qPCR). The experiment is classed as cell-based. To be noted: for SNCA expression induction: NHA exposed to cytokine for 24 hours, no significant difference between infected and uninfected cells; for LCN2 expression induction: NHA, HPgV-infected and uninfected, exposed to cytokine for 24 hours. The method, then:
As previously stated, iPSC-derived PD astrocytes show increased expression of LCN2 and GFAP following exposure to inflammatory conditions. Inflammation can additionally induce A1 phenotypic skewing in astrocytes.^4 Therefore, the analysis of mtDNA, PD astrocyte-associated genes, and A1/A2 skewing was repeated on NHA that were exposed to the inflammatory cytokine IL1β, IFNγ, or TNFα for 24 hours. mtDNA copy number was reduced in infected cells exposed to cytokines as compared to uninfected cells exposed to cytokines (FIG. 5A; IL1β p=0.0004; IFNγ p=0.001; TNFα p=0.03). […] SNCA expression was induced 10-fold following exposure to IL1β.
Normal human astrocytes (NHA): Cryopreserved NHA were obtained from Lonza. NHA were maintained in Astrocyte Basal Medium with Astrocyte Growth Medium SingleQuot supplements (Lonza). NHA were seeded at 5×10^3 cells/cm and allowed to reach confluency before splitting and seeding into new cell culture vessels, which took approximately 10 days. Medium was changed 24 hours after seeding and every subsequent 48 hours. NHA were discarded at passage 10.
Quantification of PD astrocyte associated gene expression was performed on similarly extracted RNA, following DNAse digestion and isopropanol precipitation. DNAse-treated RNA was resuspended in 50 μL of nuclease-free H2O, quantitated using the Qubit BR ssRNA kit, and diluted to 40 ng/μL. Commercially available TaqMan gene expression assays against GFAP (#Hs00909233; Fisher Scientific), LCN2 (#Hs01008571), SNCA (#Hs00240906), and ITPR2 (#Hs00181916), using FAM as a detector, were each multiplexed with GAPDH (housekeeping gene; #Hs02786624) using VIC as a detector. Each assay was run in duplicate 20 μL reactions, with 5 μL of diluted template RNA, 1 μL of each appropriate 20× assay, and 5 μL of TaqMan Fast Virus 1-step master mix. ΔΔCT was calculated as previously described.

Consider IFNγ: inflammatory cytokine, for which the SNCA expression induction result is reported as “observed to a lesser extent”. Take TNFα: the SNCA expression induction entry is “observed to a lesser extent” and the LCN2 expression induction result is given as “significantly induced expression of LCN2 in infected cells but not uninfected cells”. Turning to IL1β: inflammatory cytokine, the SNCA expression induction amounted to 10 fold; the LCN2 expression induction result was “induced LCN2 expression in both infected and uninfected cells”.
